In patent US4536398A, “Antiviral agents” (Meiji Seika Kaisha Ltd., priority 1982, dated 1985):
Converted amounts (≈) assume the structure as drawn. Where two headings read alike, the source gives them in different places.

Columns and labels:
[1] = Serum level after oral administration; format: in vivo; settings: 125 mg/kg oral (5% arabin gum), HPLC, mice n=3
Protocol: | Dose: 125 mg/kg (5% arabin gum)

Influenza virus A1 /FM-1 [2] = experiment: microbe, parasite or virus in culture; format: cell-based
Sarcina lutea = experiment: Agar dilution antibacterial MIC; format: cell-based; settings: Micrococcus luteus; agar dilution method; read-out: Minimum Inhibitory Concentration
[3] = test system: Staphylococcus aureus 209P; experiment: Agar dilution antibacterial MIC; format: cell-based; settings: agar dilution method, read-out: Minimum Inhibitory Concentration
Influenza virus A1 /FM-1 [4] = experiment: microbe, parasite or virus in culture; format: cell-based; remark: listed apart in the source
Vibrio percolance = experiment: Paper disc plate bioassay, inhibition zone; format: cell-based; settings: paper disc plate method, read-out: diameter of inhibition zone
Excerpt: For assay of the substance SF-2140, bioassay agar is used as a medium for assay and Vibrio percolance is as a test microbe.

[5] = test system: Escherichia coli W3630 RGN 823; experiment: Agar dilution antibacterial MIC; format: cell-based; settings: W3630RGN823, read-out: Minimum Inhibitory Concentration
[6] = test system: Shigella sonnei EW33 type I; experiment: Agar dilution antibacterial MIC; format: cell-based; settings: EW33TYPEI, agar dilution method, read-out: Minimum Inhibitory Concentration
Escherichia coli No. 29 = experiment: Agar dilution antibacterial MIC; format: cell-based; settings: agar dilution method, read-out: Minimum Inhibitory Concentration
[7] = test system: Klebsiella pneumoniae PCI 602; experiment: Agar dilution antibacterial MIC; format: cell-based; settings: PCI602, agar dilution method, read-out: Minimum Inhibitory Concentration
Salmonella typhi 0-901-W = experiment: Agar dilution antibacterial MIC; format: cell-based; settings: Salmonella enterica, read-out: Minimum Inhibitory Concentration
[8] = test system: Influenza virus A2 /Adachi; experiment: microbe, parasite or virus in culture; format: cell-based
[9] = test system: Staphylococcus aureus Smith; experiment: Agar dilution antibacterial MIC; format: cell-based; settings: agar dilution method, read-out: Minimum Inhibitory Concentration
Proteus morganii Kono = experiment: Agar dilution antibacterial MIC; format: cell-based; settings: Morganella morganii; agar dilution method; read-out: Minimum Inhibitory Concentration
[10] = test system: Pseudomonas cepacia M-0527; experiment: Agar dilution antibacterial MIC; format: cell-based; settings: Burkholderia cepacia, M0527; agar dilution method; read-out: Minimum Inhibitory Concentration
Proteus vulgaris OX-19 = experiment: Agar dilution antibacterial MIC; format: cell-based; settings: OX19, agar dilution method, read-out: Minimum Inhibitory Concentration
[11] = test system: Influenza virus Horse/Miami; experiment: microbe, parasite or virus in culture; format: cell-based
Solubility = format: physicochemical
Acute toxicity (LD50) = settings: mouse, in vivo, ip; mice, intraperitoneal
Protocol: Acute toxicity (LD50 value) of the substance SF-2140, the active ingredient in the present antiviral agent, was not less than 500 mg/kg in mice via intraperitoneal administration.

[12] = test system: Citrobacter freundii GN 346; experiment: Agar dilution antibacterial MIC; format: cell-based; settings: GN346, read-out: Minimum Inhibitory Concentration
Influenza virus B/Lee [13] = experiment: microbe, parasite or virus in culture; format: cell-based
[14] = test system: Influenza virus A2 /Adachi; experiment: microbe, parasite or virus in culture; format: cell-based; remark: listed apart in the source
Stability = format: physicochemical
Excerpt: (13) Stability: Stable under acidic to neutral condition, instable under alkaline condition.

[15] = test system: Influenza virus Horse/Miami; experiment: microbe, parasite or virus in culture; format: cell-based; remark: listed apart in the source
[16] = Serum level after intraperitoneal administration; format: in vivo; settings: 200 mg/kg intraperitoneal (1% CMC), biological assay, mice n=5
Protocol: | Dose: 200 mg/kg (1% CMC)

Influenza virus B/Lee [17] = experiment: microbe, parasite or virus in culture; format: cell-based; settings: unidentified influenza virus, 48 h, read-out: 50% Virus proliferation inhibiting conc.
[18] = test system: Streptococcus faecalis ATCC 8043; experiment: Agar dilution antibacterial MIC; format: cell-based; settings: Enterococcus faecalis, ATCC8043; agar dilution method; read-out: Minimum Inhibitory Concentration
[19] = test system: Salmonella enteritidis No. 11; experiment: Agar dilution antibacterial MIC; format: cell-based; settings: Salmonella enterica, agar dilution method, read-out: Minimum Inhibitory Concentration
[20] = test system: Baciullus anthrasis No. 119; experiment: Agar dilution antibacterial MIC; format: cell-based; settings: read-out: Minimum Inhibitory Concentration
[21] = test system: Pseudomonas aeruginosa MB 3829; experiment: Agar dilution antibacterial MIC; format: cell-based; settings: MB3829, agar dilution method, read-out: Minimum Inhibitory Concentration
in vitro = settings: chicken, chorioallantoic membrane
[22] = unidentified influenza virus, 2 h, read-out: 50% Virucidal conc.
[23] = unidentified influenza virus, 48 h, read-out: 50% Virus proliferation inhibiting conc.

## COC(=O)C1CC(O)C(O)C(n2cc(CC#N)c3c(OC)cccc32)O1 (stereo not shown) [SF-2140]
[1]; 180 min
  Serum concentration: 0 ng/mL
[1]; mouse, serum, 30 min
  concentration at 0.5 h: 15000 ng/mL
[1]; mouse, serum, 60 min
  concentration at 1 h: 7000 ng/mL
Influenza virus A1 /FM-1 [2]
  virucidal activity (in words): potent virucidal activity
Influenza virus A1 /FM-1 [2]; [22]
  IC50: 4.6 µg/mL (≈ 12.8 µM)
Sarcina lutea
  MIC: 50 µg/mL (≈ 139 µM)
[3]
  MIC: 25 µg/mL (≈ 69.4 µM)
Influenza virus A1 /FM-1 [4]
  proliferation inhibiting activity (in words): showed a proliferation inhibiting activity
Influenza virus A1 /FM-1 [4]; A1 /FM-1, 50% toxicity conc. / 50% proliferation inhibiting conc., 2880 min
  virus proliferation inhibition index: > 20.0
Influenza virus A1 /FM-1 [4]; [23]
  IC50: 50.5 µg/mL (≈ 140 µM)
Vibrio percolance; 125 mcg/ml
  zone of inhibition at 125 µg/mL: 14.6 mm
Vibrio percolance; 1000 mcg/ml
  zone of inhibition at 1000 µg/mL: 22 mm
[5]
  MIC: 50 µg/mL (≈ 139 µM)
[6]
  MIC: > 100 µg/mL
Escherichia coli No. 29
  MIC: > 100 µg/mL
[7]
  MIC: > 100 µg/mL
Salmonella typhi 0-901-W
  MIC: 100 µg/mL (≈ 277 µM)
[8]
  virucidal activity (in words): potent virucidal activity
[8]; [22]
  IC50: 58.8 µg/mL (≈ 163 µM)
[9]
  MIC: 100 µg/mL (≈ 277 µM)
Proteus morganii Kono
  MIC: > 100 µg/mL
[10]
  MIC: 100 µg/mL (≈ 277 µM)
Proteus vulgaris OX-19
  MIC: 25 µg/mL (≈ 69.4 µM)
[11]
  virucidal activity (in words): potent virucidal activity
[11]; [22]
  IC50: 4.6 µg/mL (≈ 12.8 µM)
Solubility; Ethyl acetate, benzene, acetone, chloroform
  Solubility: Soluble
Solubility; Hexane, water
  Solubility: Substantially insoluble
Solubility; Lower alcohol, e.g. methanol and ethanol
  Solubility: Easily soluble
Acute toxicity (LD50)
  LD50: ≥ 500 mg/kg
[12]
  MIC: > 100 µg/mL
Influenza virus B/Lee [13]
  virucidal activity (in words): potent virucidal activity
Influenza virus B/Lee [13]; [22]
  IC50: 46.4 µg/mL (≈ 129 µM)
[14]
  proliferation inhibiting activity (in words): showed a proliferation inhibiting activity
[14]; A2 /Adachi, 50% toxicity conc. / 50% proliferation inhibiting conc., 2880 min
  virus proliferation inhibition index: > 10.0
[14]; [23]
  IC50: 100 µg/mL (≈ 277 µM)
Stability; acidic to neutral condition
  Stability: Stable
Stability; alkaline condition
  Stability: instable
[15]
  proliferation inhibiting activity (in words): showed a proliferation inhibiting activity
[15]; Horse/Miami, 50% toxicity conc. / 50% proliferation inhibiting conc., 2880 min
  virus proliferation inhibition index: > 56.5
[15]; [23]
  IC50: 17.7 µg/mL (≈ 49.1 µM)
[16]; 90 min
  Serum concentration: 0 ng/mL
[16]; mouse, serum, ip, 5 min
  concentration at 5 min: 30000 ng/mL
[16]; mouse, serum, ip, 10 min
  concentration at 10 min: 42000 ng/mL
[16]; mouse, serum, ip, 20 min
  concentration at 20 min: 55000 ng/mL
[16]; mouse, serum, ip, 30 min
  concentration at 0.5 h: 45000 ng/mL
[16]; mouse, serum, ip, 60 min
  concentration at 1 h: 27000 ng/mL
Influenza virus B/Lee [17]
  IC50: > 200 µg/mL
[18]
  MIC: 12.5 µg/mL (≈ 34.7 µM)
[19]
  MIC: 12.5 µg/mL (≈ 34.7 µM)
[20]
  MIC: 6.25 µg/mL (≈ 17.3 µM)
[21]
  MIC: > 100 µg/mL
In vitro
  CC50 at 24 h: > 1000 µg/mL
